Test results taken from PMC8370991, “Structural basis for the inhibition of HTLV-1 integration inferred from cryo-EM deltaretroviral intasome structures” (Nature Communications, 2021).
Like-named read-outs stand apart in the source and are kept apart here.

Target: T1, recombinant HTLV-1 IN (Human T-cell leukemia virus 1, UniProt P03362)
T1 construct: made in house
Test: In vitro integration strand transfer assay with HTLV-1 IN
Type: biochemical
Settings: for HTLV-1 IN strand transfer activity (No drug = 100): INSTI at 634 nM; for IC50 compared with that of RAL: dose-response strand transfer assays
Protocol: We used in vitro strand transfer assays to screen this small molecule library for its ability to inhibit recombinant HTLV-1 IN. The enzyme was incubated with an oligonucleotide vDNA donor mimic in the presence or absence of INSTIs and was allowed to react with a supercoiled plasmid mimicking target DNA. During the screening, the concentration of each compound was adjusted to 634 nM to provide optimal resolution of efficacy between well- and under-performing compounds.
The donor vDNA that mimics the 3′-processed LTR of HTLV-1 or STLV-1 DNA was preassembled by annealing the U5_S20Q_UP and U5_S20Q_B or MarB43_U5_S30UP or MarB43_U5_S30B oligonucleotides, respectively (Supplementary Table 4) in 100 mM Tris pH 7.4, 400 mM NaCl. For HTLV-1 IN, strand transfer reactions were conducted in a solution of 24.3 mM PIPES pH 6.0, 138.4 mM NaCl, 16.6 mM MgCl2, 5.8 μM ZnCl2, 12.7 mM DTT, 0.53 μM donor DNA and 4 μg of HTLV-1 IN[9],[39]. In brief, the reaction was incubated at RT for 15 min in the presence of an INSTI or dimethyl sulfoxide (DMSO) control and the reaction was started by the addition of 300 ng of pGEM-9Zf(-) supercoiled plasmid DNA. The reaction was incubated for 1 h at 37 °C and stopped by adding 0.5% SDS and 25 mM ethylenediaminetetraacetic acid (EDTA), pH 8.0.
Proteins were degraded by incubation with 30 μg of proteinase K (Roche) at 37 °C for 1 h. DNA was precipitated at −20 °C overnight in the presence of ethanol supplemented with 20 μg of glycogen and then resuspended in 1.5× agarose loading dye. The DNA products were separated by electrophoresis through 1.5% agarose gel and stained with ethidium bromide and imaged using the BioRad GelDox XR + imager. The data were analysed and the IC50 calculated as previously described. In brief, the DNA band that corresponds to the concerted integration product was quantified by densitometry in ImageLab 4.1 (Bio-Rad). All experiments were done in triplicate. Quantified data points were fitted to dose–response curves in Prism 9. The cumulative standard deviation for each drug was calculated as an average of the upper limit and lower limit values: Lowerlimit=IC50/10^logSE(IC50) Upperlimit=IC50×10^logSE(IC50)

[1] = Replicate 1, read-out: HTLV-1 IN strand transfer IC50
[2] = Replicate 2, read-out: HTLV-1 IN strand transfer IC50
[3] = Replicate 3, read-out: HTLV-1 IN strand transfer IC50
[4] = integrase strand-transfer drug titration, n = 3, read-out: HTLV-1 IC50 ± stdev

T1 sequence (P03362 1168-1462): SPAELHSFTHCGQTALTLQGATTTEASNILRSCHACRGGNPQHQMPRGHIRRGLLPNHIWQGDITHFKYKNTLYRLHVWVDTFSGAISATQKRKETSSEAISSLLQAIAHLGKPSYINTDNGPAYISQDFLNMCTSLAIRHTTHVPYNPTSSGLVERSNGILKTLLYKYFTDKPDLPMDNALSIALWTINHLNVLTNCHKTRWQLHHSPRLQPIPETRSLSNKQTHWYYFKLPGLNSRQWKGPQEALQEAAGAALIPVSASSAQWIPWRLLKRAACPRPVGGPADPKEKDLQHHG

SMILES	HTLV-1 IN strand transfer activity (No drug = 100) (Replicate 1)	HTLV-1 IN strand transfer activity (No drug = 100) (Replicate 2)	HTLV-1 IN strand transfer activity (No drug = 100) (Replicate 3)	IC50 [1]	IC50 [2]	IC50 [3]	IC50 compared with that of RAL	inhibition of HTLV-1 IN in the screen compared with RAL (each compound at 634 nM)	IC50 [4]
O=C(NNC(=O)c1cccc(O)c1O)c1cccc(O)c1O [XZ15, N'-(2,3-dihydroxybenzoyl)-2,3-dihydroxybenzohydrazide]	99.084%	89.5316%	92.2753%	–	–	–	–	–	–
O=C(NNC(=O)c1cccc(O)c1O)c1ccccc1O [XZ45, 2,3-dihydroxy-N'-(2-hydroxybenzoyl)benzohydrazide]	95.0641%	107.975%	100.183%	–	–	–	–	–	–
O=C(NN1Cc2ccc(O)c(O)c2C1=O)c1cccc(O)c1O [XZ49, N-(6,7-dihydroxy-1-oxoisoindolin-2-yl)-2,3-dihydroxybenzamide]	94.3672%	88.3747%	109.808%	–	–	–	–	–	–
O=C1c2ccc(O)c(O)c2C(=O)N1Cc1ccc(F)c(Cl)c1 [XZ89, 2-(3-chloro-4-fluorobenzyl)-4,5-dihydroxyisoindoline-1,3-dione]	87.9286%	85.883%	98.5818%	–	–	–	–	–	–
O=C1c2c(ccc(O)c2O)CN1Cc1ccc(F)c(Cl)c1 [XZ90, 2-(3-chloro-4-fluorobenzyl)-6,7-dihydroxyisoindolin-1-one]	47.6981%	83.7072%	92.5665%	–	–	–	–	–	–
Cc1c2c(c(O)c(=O)n1C)C(=O)N(Cc1ccc(F)c(Cl)c1)C2=O [XZ202, 2-(3-chloro-4-fluorobenzyl)-7-hydroxy-4,5-dimethyl-1H-pyrrolo[3,4-c]pyridine-1,3,6(2H,5H)-trione]	98.3269%	98.0594%	97.9688%	–	–	–	–	–	–
COC(=O)CCc1c2c(c(O)c(=O)n1C(C)C)C(=O)N(Cc1ccc(F)c(Cl)c1)C2=O [XZ220, methyl 3-(2-(3-chloro-4-fluorobenzyl)-7-hydroxy-5-isopropyl-1,3,6-trioxo-2,3,5,6-tetrahydro-1H-pyrrolo[3,4-c]pyridin-4-yl)propanoate]	93.628%	97.195%	85.9754%	–	–	–	–	–	–
CN(C)C(=O)c1nc(O)c(O)c2c1CCN(Cc1ccc(F)c(Cl)c1)C2=O [XZ235, 6-(3-chloro-4-fluorobenzyl)-3,4-dihydroxy-N,N-dimethyl-5-oxo-5,6,7,8-tetrahydro-2,6-naphthyridine-1-carboxamide]	50.5732%	55.8637%	62.5799%	–	–	–	–	–	–
Cc1c2c(c(O)c(=O)n1Cc1ccc(F)c(Cl)c1)C(=O)N(C)C2=O [XZ242, 5-(3-chloro-4-fluorobenzyl)-7-hydroxy-2,4-dimethyl-1H-pyrrolo[3,4-c]pyridine-1,3,6(2H,5H)-trione]	115.41%	99.061%	100.661%	–	–	–	–	–	–
CCN1CCn2c(c3c(c(O)c2=O)C(=O)N(Cc2ccc(F)c(Cl)c2)C3=O)C1=O [XZ256, 9-(3-chloro-4-fluorobenzyl)-2-ethyl-7-hydroxy-3,4-dihydropyrrolo[3',4':3,4]pyrido[1,2-a]pyrazine-1,6,8,10(2H,9H)-tetraone]	112.467%	93.5244%	114.376%	–	–	–	–	–	–
CN(C)S(=O)(=O)c1cc(O)c(O)c2c1CN(Cc1ccc(F)c(Cl)c1)C2=O [XZ259, 2-(3-chloro-4-fluorobenzyl)-6,7-dihydroxy-N,N-dimethyl-1-oxoisoindoline-4-sulfonamide]	63.0889%	67.971%	68.9907%	–	–	–	–	–	–
[N-]=[N+]=NCc1cccc(C(=O)/C=C(\O)C(=O)O)c1 [XZ319, (Z)-4-(3-(azidomethyl)phenyl)-2-hydroxy-4-oxobut-2-enoic acid]	88.4055%	92.5212%	100.53%	–	–	–	–	–	–
O=C(O)/C(O)=C/C(=O)c1cc(OCc2ccccc2)cc(OCc2ccccc2)c1 [XZ320, (Z)-4-(3,5-bis(benzyloxy)phenyl)-2-hydroxy-4-oxobut-2-enoic acid, reference compound]	35.3455%	62.3815%	55.2426%	–	–	–	–	–	–
O=C(NCc1ccc(F)cc1F)c1c(O)c2cccnc2n(O)c1=O [XZ351, N-(2,4-difluorobenzyl)-1,4-dihydroxy-2-oxo-1,2-dihydro-1,8-naphthyridine-3-carboxamide]	30.0691%	57.1529%	59.6295%	–	–	–	–	–	–
O=C(NCc1ccc(F)cc1F)c1c(NCCO)c2cccnc2n(O)c1=O [XZ378, N-(2,4-difluorobenzyl)-1-hydroxy-4-((2-hydroxyethyl)amino)-2-oxo-1,2-dihydro-1,8-naphthyridine-3-carboxamide]	14.3053%	44.0798%	36.7031%	0.311 µM	0.474 µM	0.392 µM	no significant improvement over RAL	outperformed RAL	0.397 ± 0.064 µM
Nc1c(C(=O)NCc2ccc(F)cc2F)c(=O)n(O)c2nc(N3CCOCC3)ccc12 [XZ413, 4-amino-N-(2,4-difluorobenzyl)-1-hydroxy-7-morpholino-2-oxo-1,2-dihydro-1,8-naphthyridine-3-carboxamide]	103.686%	92.8191%	81.1252%	–	–	–	–	–	–
Nc1c(C(=O)NCc2ccc(F)cc2F)c(=O)n(O)c2ncc(-c3ccccc3)cc12 [XZ420, 4-amino-N-(2,4-difluorobenzyl)-1-hydroxy-2-oxo-6-phenyl-1,2-dihydro-1,8-naphthyridine-3-carboxamide]	20.0015%	29.6468%	21.6983%	0.276 µM	0.499 µM	0.466 µM	no significant improvement over RAL	–	0.411 ± 0.093 µM
Nc1c(C(=O)NCc2ccc(F)cc2F)c(=O)n(O)c2ncc(CCCOCCO)cc12 [XZ432, 4-amino-N-(2,4-difluorobenzyl)-1-hydroxy-6-(3-(2-hydroxyethoxy)propyl)-2-oxo-1,2-dihydro-1,8-naphthyridine-3-carboxamide]	18.6132%	21.9961%	19.5014%	0.177 µM	0.156 µM	0.173 µM	–	–	0.168 ± 0.017 µM
O=C(NCc1ccc(F)cc1F)c1c(NCCO)c2cc(CCCCCO)cnc2n(O)c1=O [XZ439, N-(2,4-difluorobenzyl)-1-hydroxy-4-((2-hydroxyethyl)amino)-6-(5-hydroxypentyl)-2-oxo-1,2-dihydro-1,8-naphthyridine-3-carboxamide]	27.6089%	29.3463%	25.7676%	0.27 µM	0.239 µM	0.232 µM	–	–	–
CC(C)NC(=O)/C=C/c1cnc2c(c1)c(N)c(C(=O)NCc1ccc(F)cc1F)c(=O)n2O [XZ452, (E)-4-amino-N-(2,4-difluorobenzyl)-1-hydroxy-6-(3-(isopropylamino)-3-oxoprop-1-en-1-yl)-2-oxo-1,2-dihydro-1,8-naphthyridine-3-carboxamide]	11.3751%	23.2017%	17.2877%	0.174 µM	0.162 µM	0.229 µM	–	–	0.182 ± 0.0447 µM
